The values below come from US20230242494A1, “MALONITRILE DERIVATIVES” (Hoffmann-La Roche Inc., priority 2020, published 2023).

pIC50: −log10 of the molar value.

The target in this test is T1, human cGAS (residues 161-522) (Homo sapiens, UniProt Q8N884).
T1 construct: human cGAS (residues 161-522); made in house
T1 sequence (Q8N884 161-522): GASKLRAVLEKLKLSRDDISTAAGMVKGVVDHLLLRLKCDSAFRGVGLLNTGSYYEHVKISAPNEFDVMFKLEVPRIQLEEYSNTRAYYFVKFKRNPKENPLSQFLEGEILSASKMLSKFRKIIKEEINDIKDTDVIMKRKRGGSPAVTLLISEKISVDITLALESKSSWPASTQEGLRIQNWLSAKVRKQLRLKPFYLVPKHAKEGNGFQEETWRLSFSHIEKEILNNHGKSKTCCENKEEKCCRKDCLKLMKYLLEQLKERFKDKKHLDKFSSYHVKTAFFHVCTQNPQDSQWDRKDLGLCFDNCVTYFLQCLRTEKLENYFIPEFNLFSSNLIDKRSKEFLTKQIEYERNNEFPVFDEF
The experiment in a line: cGAS Activity Assay—Malachite Green. The test is classed as biochemical. The note with it: recombinant purified human cGAS 25 nM; 80 μM ATP, 80 μM GTP, 100 nM ISD; 4 hour at RT; phosphate detection by Malachite Green. The method, boiled down:
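Human cGAS (161-522, 25 nM) in 20 mM TRIS pH 7.5, 5 mM MgCl2, 0.01% BSA with 80 μM ATP, 80 μM GTP and 100 nM ISD DNA, 4 h at RT. Pyrophosphate converted by PPase, phosphate read with Malachite Green at 620 nm; IC50 from 4-parameter fit of 16-point series.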
As to `Cc1oncc1/C(O)=C(\C#N)C(=O)Nc1ncc(OCC(F)(F)F)c(-c2ccc(Cl)cc2)n1` [Example 127, (Z)-N-(4-(4-chlorophenyl)-5-(2,2,2-trifluoroethoxy)pyrimidin-2-yl)-2-cyano-3-hydroxy-3-(5-methylisoxazol-4-yl)acrylamide], the pIC50 is 5.63.

For `COCCN(C)S(=O)(=O)c1cnc(NC(=O)/C(C#N)=C(\O)c2cnoc2C)nc1` [Example 117, (Z)-2-Cyano-3-hydroxy-N-(5-(N-(2-methoxyethyl)-N-methylsulfamoyl)pyrimidin-2-yl)-3-(5-methylisoxazol-4-yl)acrylamide], the pIC50 is 7.30.

For `Cc1oncc1/C(O)=C(\C#N)C(=O)Nc1ccc(Cl)c(Cl)c1` [Example 12, (Z)-2-cyano-N-(3,4-dichlorophenyl)-3-hydroxy-3-(5-methylisoxazol-4-yl)acrylamide], the pIC50 is 5.59.

As for `Cc1oncc1/C(O)=C(\C#N)C(=O)Nc1ncc(C(F)(F)F)cn1` [Example 94, (Z)-2-cyano-3-hydroxy-3-(5-methylisoxazol-4-yl)-N-(5-(trifluoromethyl)pyrimidin-2-yl)acrylamide], the pIC50 was 7.05.

Consider `Cc1oncc1/C(O)=C(\C#N)C(=O)Nc1ncc(S(=O)(=O)N(C)C)cn1` [Example 96, (Z)-2-cyano-N-(5-(N,N-dimethylsulfamoyl)pyrimidin-2-yl)-3-hydroxy-3-(5-methylisoxazol-4-yl)acrylamide], for which the pIC50 is 7.15.

With `Cc1oncc1/C(O)=C(\C#N)C(=O)Nc1nc(Cl)c(-c2ccccc2)c(NS(=O)(=O)c2ccc(Cl)cc2)n1` [Example 108, (Z)-N-(4-chloro-6-((4-chlorophenyl)sulfonamido)-5-phenylpyrimidin-2-yl)-2-cyano-3-hydroxy-3-(5-methylisoxazol-4-yl)acrylamide], the pIC50 is 5.30.

Turning to `Cc1oncc1/C(O)=C(\C#N)C(=O)Nc1cccc(NC(=O)c2ccccc2)c1` [Example 71, (Z)-N-(3-(2-cyano-3-hydroxy-3-(5-methylisoxazol-4-yl)acrylamido)phenyl) benzamide], the pIC50 was 5.87.

As for `Cc1oncc1/C(O)=C(\C#N)C(=O)Nc1ccc([S+]([O-])c2ccccc2)cn1` (stereo not shown) [Example 90, (Z)-2-cyano-3-hydroxy-3-(5-methylisoxazol-4-yl)-N-(5-(phenylsulfinyl)pyridin-2-yl)acrylamide], the pIC50 is 6.89.

Regarding `Cc1oncc1/C(O)=C(\C#N)C(=O)Nc1ncc(OCC2CC2)c(-c2ccc(Cl)cc2)n1` [Example 125, (Z)-N-(4-(4-chlorophenyl)-5-(cyclopropylmethoxy)pyrimidin-2-yl)-2-cyano-3-hydroxy-3-(5-methylisoxazol-4-yl)acrylamide], the pIC50 was 5.54.

Take `Cc1oncc1/C(O)=C(\C#N)C(=O)Nc1ccc(C(=O)c2ccccc2)cc1` [Example 38, (Z)-N-(4-benzoylphenyl)-2-cyano-3-hydroxy-3-(5-methylisoxazol-4-yl)prop-2-enamide]: the pIC50 was 5.94.

Turning to `Cc1oncc1/C(O)=C(\C#N)C(=O)Nc1ccc(-n2cccc2)cc1` [Example 21, (Z)-N-(4-(1H-pyrrol-1-yl)phenyl)-2-cyano-3-hydroxy-3-(5-methylisoxazol-4-yl)acrylamide], the pIC50 was 5.84.

With `Cc1oncc1/C(O)=C(\C#N)C(=O)Nc1nccc(CCc2ccccc2)n1` [Example 87, (Z)-2-cyano-3-hydroxy-3-(5-methylisoxazol-4-yl)-N-(4-phenethylpyrimidin-2-yl)acrylamide], the pIC50 is 6.62.

For `Cc1oncc1/C(O)=C(\C#N)C(=O)Nc1ncc([S+]([O-])c2ccccc2)cn1` (stereo not shown) [Example 112, (Z)-N-[5-(benzenesulfinyl)pyrimidin-2-yl]-2-cyano-3-hydroxy-3-(5-methylisoxazol-4-yl)prop-2-enamide], the pIC50 was 7.70.

As a reminder, the pIC50 is the negative decadic logarithm of the IC50, by convention in mol/L.
